CC1(C)O[C@H]2CC(=O)OC[C@]23[C@H]2CC[C@@]4(C)[C@H](c5ccoc5)OC(=O)[C@H]5O[C@]54[C@]2(C)C(=O)C[C@@H]13
solubility (mole fraction)
Conditions	283.2 K	288.2 K	293.2 K	298.2 K	303.2 K	308.2 K	313.2 K	318.2 K	323.2 K
in THF	0.00242	0.00257	0.0028	0.00309	0.00327	0.0035	0.00408	0.00458	0.00486
in acetonitrile	0.00272	0.00314	0.00349	0.00385	0.00454	0.00523	0.00628	0.00739	0.00857
in chloroform	0.00425	0.00433	0.00447	0.00458	0.00479	0.00512	0.00531	0.0057	0.00599
in ethanol	2.65e-05	2.93e-05	3.05e-05	3.53e-05	4.27e-05	5.48e-05	6.71e-05	8.49e-05	0.000101
in ethyl acetate	0.000746	0.000761	0.000801	0.00085	0.00094	0.000979	0.00101	0.00119	0.00128
in isopropanol	1.08e-05	1.25e-05	1.56e-05	1.79e-05	1.87e-05	2.25e-05	3.03e-05	3.47e-05	4.52e-05
in n-butanol	1.53e-05	1.94e-05	2.01e-05	2.64e-05	2.91e-05	3.54e-05	4.23e-05	5.62e-05	7.25e-05
in n-butyl acetate	0.000323	0.000349	0.000375	0.000413	0.000484	0.00053	0.000616	0.000646	0.00068

— BigSolDB 2.1
